The subject of series [1] is HCT-116 cells. Description: MTT cytotoxicity assay, HCT-116. Type of series: cell-based. Particulars: Homo sapiens, incubation time 24 h, mean ± SD (n = 3).
Series [2] concerns MCF-7 cells. Description: MTT cytotoxicity assay, MCF-7. It counts as cell-based. The note with it: Homo sapiens, MCF7, incubation time 72 h, mean ± SD (n = 3). The protocol:
In vitro cytotoxicity studies of the obtained building blocks and glycoconjugates were carried out on cell lines characterized by the high expression of GLUT transporters and the strongly changed glucose metabolism (strong Warburg effect). […] Cytotoxicity was evaluated using the MTT assay.
The human cell line MCF-7 was obtained from collections at the Maria Sklodowska-Curie Memorial Cancer Center and Institute of Oncology, branch in Gliwice, Poland. […] The culture media were purchased from EuroClone and HyClone. Fetal bovine serum (FBS) was delivered by EURx, Poland, and Antibiotic Antimycotic Solution (100×) by Sigma-Aldrich, Germany. The cells were cultured under standard conditions at 37 °C in a humidified atmosphere at 5% CO2.
The viability of the cells was determined using an MTT (3-[4,5–dimethylthiazol-2-yl]-2,5-diphenyltetrazolium bromide) test (Sigma-Aldrich). Stock solutions of tested compounds were prepared in DMSO and diluted with the appropriate volumes of the growth medium directly before the experiment. […] The cell cultures were incubated for 24 h at 37 °C in a humidified atmosphere of 5% CO2. Then, the culture medium was removed, replaced with the solution of the tested compounds in medium with varying concentrations, and incubated for further 24 h or 72 h. After that, the medium was removed, and the MTT solution (50 µL, 0.5 mg/mL in PBS) was added. After 3 h of incubation, the MTT solution was removed, and the precipitated formazan was dissolved in DMSO. Finally, the absorbance at the 570 nm wavelength was measured spectrophotometrically with the plate reader. The experiment was conducted in at least three independent iterations with four technical repetitions. The IC50 values were calculated using CalcuSyn software (version 2.0, Biosoft, Cambridge, UK).
In general terms: Tetrazolium assays rely on reduction of a dye to a coloured formazan, in cell work by metabolically active cells.

In series [3] the target is T1, β-galactosidase from Aspergillus oryzae (Aspergillus oryzae, UniProt Q2UCU3).
T1 construct: purchased Sigma-Aldrich G5160
T1 sequence (Q2UCU3 19-1005): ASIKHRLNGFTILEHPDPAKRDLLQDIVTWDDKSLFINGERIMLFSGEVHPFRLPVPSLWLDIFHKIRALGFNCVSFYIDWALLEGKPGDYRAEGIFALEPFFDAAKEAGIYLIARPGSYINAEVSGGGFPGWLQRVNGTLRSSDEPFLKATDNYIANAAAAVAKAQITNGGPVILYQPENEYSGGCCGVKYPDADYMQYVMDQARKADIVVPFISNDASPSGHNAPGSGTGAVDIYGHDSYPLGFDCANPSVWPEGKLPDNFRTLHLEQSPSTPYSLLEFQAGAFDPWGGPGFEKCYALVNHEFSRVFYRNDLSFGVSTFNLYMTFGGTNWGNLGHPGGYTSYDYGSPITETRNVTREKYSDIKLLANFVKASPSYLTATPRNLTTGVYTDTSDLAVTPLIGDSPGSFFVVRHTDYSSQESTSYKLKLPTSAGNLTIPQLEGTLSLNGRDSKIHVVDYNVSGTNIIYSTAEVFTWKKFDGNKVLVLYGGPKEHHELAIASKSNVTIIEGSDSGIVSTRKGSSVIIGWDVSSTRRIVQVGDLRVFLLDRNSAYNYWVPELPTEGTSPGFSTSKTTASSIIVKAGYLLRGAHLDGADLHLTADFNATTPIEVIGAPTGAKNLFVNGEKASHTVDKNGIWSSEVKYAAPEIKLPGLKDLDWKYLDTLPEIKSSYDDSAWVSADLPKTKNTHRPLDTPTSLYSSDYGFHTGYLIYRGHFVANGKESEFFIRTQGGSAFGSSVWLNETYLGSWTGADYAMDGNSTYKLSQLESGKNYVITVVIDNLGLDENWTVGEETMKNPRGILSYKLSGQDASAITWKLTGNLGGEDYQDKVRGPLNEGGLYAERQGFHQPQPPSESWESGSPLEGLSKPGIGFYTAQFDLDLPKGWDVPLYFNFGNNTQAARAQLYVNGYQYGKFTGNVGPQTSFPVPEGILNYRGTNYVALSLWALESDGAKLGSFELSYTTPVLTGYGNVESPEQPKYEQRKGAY
Briefly: Glycoconjugate stability under the action of β-galactosidase (hydrolysis followed by TLC). The note with it: 0.089 unit enzyme, 5 mM substrate, phosphate-citrate buffer pH 4.5, 30 °C, TLC at 10 min to 24 h. It counts as in vitro ADME. On the procedure: As part of the research, the effect of introducing a sulfur atom into the anomeric position of sugar was assessed. […] This was particularly evident for the 8-HQ derivatives 51 and 52, for which the cytotoxic activity was about twice as high as that of their structural counterparts with an anomeric oxygen atom (Figure 3). Unfortunately, an increase in cytotoxicity for glycoconjugates containing anomeric sulfur was observed, both to neoplastic cells and to healthy cells. […] In order to verify this assumption, two galactoconjugates 56 and 64 (being the deprotected counterparts of galactoconjugates 52 and 60) and their two analogs with anomeric oxygen were chosen and subjected to hydrolysis reactions using β-galactosidase from Aspergillus oryzae.
8-Hydroxyquinoline Glycoconjugates Containing
Sulfur at the Sugar Anomeric Position - Synthesis and Preliminary Evaluation of Their Cytotoxicity […]
The following reagents were pipetted into a test tube: 0.4 mL of 20 mM Phosphate-Citrate Buffer (C) and 0.5 mL of the appropriate 10 mM Substrate Solution ( D1-D4), which then thoroughly mixed and equilibrated to 30 °C with a thermoblock. […] The progress of the reactions was monitored by thin-layer chromatography (TLC) in a CHCl3:CH3OH (5:1) eluents system. […]

Structures are written as SMILES.

Regarding `OC[C@H]1O[C@@H](SCc2cn(CCCOc3cccc4cccnc34)nn2)[C@H](O)[C@@H](O)[C@H]1O` [Compound 64], the IC50 in series [1] and in series [2] was over 800 µM in each case. The “Hydrolysis in the presence of β-galactosidase” value in series [3] is on record as “did not undergo hydrolysis”.

The IC50 is the concentration at which inhibition is half-maximal. Read a low IC50 as greater potency.

For the origin of these results see paper PMC7570910, “8-Hydroxyquinoline Glycoconjugates Containing Sulfur at the Sugar Anomeric Position—Synthesis and Preliminary Evaluation of Their Cytotoxicity” (Molecules, 2020).
